Experiments:
Conditions in all cases: average of at least two experiments
[1] = biological target: 5HT4 receptor (Homo sapiens (Human), UniProt Q13639); assay: Secondary radioligand binding assay, 5HT4; set-up: key: “—” indicates that a binding interaction was not detected
Procedure: 1. Secondary Radioligand Binding Assays The detailed experimental protocols for the radioligand and functional receptor assays are available on the NIMH PDSP website at http://pdsp.med.unc.edu/UNC-CH %20Protocol %20Book.pdf. Assay Buffer: Standard Binding Buffer (50 mM Tris-HCl, 10 mM MgCl2, 1 mM EDTA, pH 7.4) Membrane Fraction Source: Transiently or stably transfected cell lines (e.g., HEK293, COS, CHO, NIH3T3) Protocol adapted from Roth et al. (1986), J. Pharmacol. Exp. Ther., 238(2): 480-485; and Roth et al. (1994), J. Pharmacol. Exp. Ther., 268(3): 1403-1410. […] A similar stock of a reference compound (positive control) is also prepared. […] Radioligand is diluted to five times the assay concentration (see Table 18) in Standard Binding Buffer. Typically, the assay concentration of radioligand is a value between one half the KD and the KD of a particular radioligand at its target. 50 μl aliquots of radioligand are dispensed into the wells of a 96-well plate containing 100 μl of Standard Binding Buffer. Then, duplicate 50 μl aliquots of the test and reference compound dilutions are added. Finally, crude membrane fractions of cells expressing recombinant target (prepared from 10 cm plates by harvesting PBS-rinsed monolayers, resuspending and lysing in chilled, hypotonic 50 mM Tris-HCl, pH 7.4, centrifuging at 20,000×g, decanting the supernatant and storing at −80° C.; typically, one 10 cm plate provides sufficient material for 24 wells), are resuspended in 3 ml of chilled Standard Binding Buffer and homogenized by several passages through a 26 gauge needle, then 50 μl are dispensed into each well. […] Four rapid 500 μl washes are performed with chilled Standard Binding Buffer to reduce non-specific binding. Filters are placed in 6 ml scintillation tubes and allowed to dry overnight. The next day, 4 ml of EcoScint scintillation cocktail (National Diagnostics) are added to each tube. The tubes are capped, labeled, and counted by liquid scintillation counting. For higher throughput assays, bound radioactivity is harvested onto 0.3% polyethyleneimine-treated, 96-well filter mats using a 96-well Filtermate harvester. The filter mats are dried, then scintillant is melted onto the filters and the radioactivity retained on the filters is counted in a Microbeta scintillation counter. Raw data (dpm) representing total radioligand binding (i.e. specific+non-specific binding) are plotted as a function of the logarithm of the molar concentration of the competitor (i.e. test or reference compound).

[2] = biological target: 5HT5 receptor (Homo sapiens (Human), UniProt P47898); assay: Secondary radioligand binding assay, 5HT5; set-up: key: “—” indicates that a binding interaction was not detected;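 note: competitive radioligand displacement on membranes from transfected cell lines, incubated at room temperature in the dark, filter-retained radioactivity counted by liquid scintillation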
Sequence of 5HT5 receptor (P47898 whole entry): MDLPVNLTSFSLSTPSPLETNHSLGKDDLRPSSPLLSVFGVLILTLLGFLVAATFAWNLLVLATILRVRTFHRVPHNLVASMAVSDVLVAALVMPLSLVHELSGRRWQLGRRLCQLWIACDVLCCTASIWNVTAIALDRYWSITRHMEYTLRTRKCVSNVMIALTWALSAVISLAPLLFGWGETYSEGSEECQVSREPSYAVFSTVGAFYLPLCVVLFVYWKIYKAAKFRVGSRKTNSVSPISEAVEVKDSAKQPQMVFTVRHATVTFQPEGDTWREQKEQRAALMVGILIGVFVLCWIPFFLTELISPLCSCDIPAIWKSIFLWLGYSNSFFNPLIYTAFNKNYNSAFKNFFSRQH

[3] = biological target: Alpha1A adrenergic receptor (Homo sapiens (Human), UniProt P35348); assay: Secondary radioligand binding assay, Alpha1A; set-up: key to Ki Alpha1A: “—” indicates that a binding interaction was not detected
Sequence of Alpha1A adrenergic receptor (P35348 whole entry): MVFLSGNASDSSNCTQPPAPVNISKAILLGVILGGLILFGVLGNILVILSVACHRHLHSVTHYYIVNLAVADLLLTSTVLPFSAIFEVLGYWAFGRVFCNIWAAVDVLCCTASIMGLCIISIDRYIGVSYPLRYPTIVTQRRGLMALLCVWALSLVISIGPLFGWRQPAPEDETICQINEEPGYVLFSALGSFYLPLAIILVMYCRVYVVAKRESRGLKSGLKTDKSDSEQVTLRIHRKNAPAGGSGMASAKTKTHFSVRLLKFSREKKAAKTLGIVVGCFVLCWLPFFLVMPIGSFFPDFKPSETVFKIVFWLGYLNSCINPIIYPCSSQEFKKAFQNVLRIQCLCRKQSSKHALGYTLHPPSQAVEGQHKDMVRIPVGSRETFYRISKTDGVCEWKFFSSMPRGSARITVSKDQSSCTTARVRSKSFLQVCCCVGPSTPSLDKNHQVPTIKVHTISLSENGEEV
Excerpt: 1. Secondary Radioligand Binding Assays The detailed experimental protocols for the radioligand and functional receptor assays are available on the NIMH PDSP website at http://pdsp.med.unc.edu/UNC-CH %20Protocol %20Book.pdf. Raw data (dpm) representing total radioligand binding (i.e. specific+non-specific binding) are plotted as a function of the logarithm of the molar concentration of the competitor (i.e. test or reference compound). […] C. Adrenergic Receptors: α1A, α1B, α2A, α2B, α2C, β1, β2, β3 Assay Buffers: For α1 receptors, α1 Binding Buffer (20 mM Tris-HCl, 145 mM NaCl, pH 7.4); for α2 receptors, α2 Binding Buffer (50 mM Tris-HCl, 5 mM MgCl2, pH 7.7); for β receptors, β Binding Buffer (50 mM Tris-HCl, 3 mM MnCl2, pH 7.7) Membrane Fraction Source: Transiently or stably transfected cell lines (e.g. HEK293, COS, CHO, NIH3T3) Protocol adapted from Arango et al. […] (1990), Gen. Psychiatry, 47: 1038-1047. The method is carried out in the manner described for the serotonin receptor assay above, except where described below. Eleven dilutions (5× assay concentration) of the test and reference (see Table 20) compounds are prepared in the appropriate buffer by serial dilution, as previously described. Radioligand is diluted to five times the assay concentration (see Table 21) in the appropriate buffer. […] Four rapid 500-μl washes are performed with chilled distilled water (for α1 and β receptors) or 0.1% polyethyleneimine (for α2 receptors) to reduce non-specific binding. Filters are placed in 6 ml scintillation tubes and allowed to dry overnight and the samples are treated to obtain data as described above. [table]

[4] = biological target: dopamine D2 receptor (Homo sapiens (Human), UniProt P14416); assay: Secondary radioligand binding assay, D2; set-up: key to Ki D2: “—” indicates that a binding interaction was not detected
Sequence of dopamine D2 receptor (P14416 whole entry, species assumed): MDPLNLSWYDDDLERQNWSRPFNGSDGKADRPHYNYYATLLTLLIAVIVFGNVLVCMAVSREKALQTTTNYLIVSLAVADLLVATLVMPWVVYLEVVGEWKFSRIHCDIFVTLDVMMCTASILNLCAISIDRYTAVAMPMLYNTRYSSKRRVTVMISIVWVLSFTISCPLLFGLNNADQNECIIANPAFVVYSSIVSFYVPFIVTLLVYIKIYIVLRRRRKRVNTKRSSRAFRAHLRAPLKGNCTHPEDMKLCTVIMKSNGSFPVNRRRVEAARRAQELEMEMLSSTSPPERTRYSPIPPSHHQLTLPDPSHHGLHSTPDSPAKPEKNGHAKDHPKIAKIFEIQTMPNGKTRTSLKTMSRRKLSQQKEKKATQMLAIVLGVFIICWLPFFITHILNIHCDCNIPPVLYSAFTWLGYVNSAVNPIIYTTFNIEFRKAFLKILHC
Procedure: (§1) 1. Secondary Radioligand Binding Assays
(§2) The detailed experimental protocols for the radioligand and functional receptor assays are available on the NIMH PDSP website at http://pdsp.med.unc.edu/UNC-CH %20Protocol %20Book.pdf.
(§3) Radioligand is diluted to five times the assay concentration (see Table 18) in Standard Binding Buffer. Typically, the assay concentration of radioligand is a value between one half the KD and the KD of a particular radioligand at its target. 50 μl aliquots of radioligand are dispensed into the wells of a 96-well plate containing 100 μl of Standard Binding Buffer. Then, duplicate 50 μl aliquots of the test and reference compound dilutions are added.
(§4) The 250 μl reactions are incubated at room temperature and shielded from light (to prevent photolysis of light-sensitive ligands) for 1.5 hours, then harvested by rapid filtration onto Whatman GF/B glass fiber filters pre-soaked with 0.3% polyethyleneimine using a 96-well Brandel harverster. Four rapid 500 μl washes are performed with chilled Standard Binding Buffer to reduce non-specific binding. Filters are placed in 6 ml scintillation tubes and allowed to dry overnight. The next day, 4 ml of EcoScint scintillation cocktail (National Diagnostics) are added to each tube. The tubes are capped, labeled, and counted by liquid scintillation counting. […] The filter mats are dried, then scintillant is melted onto the filters and the radioactivity retained on the filters is counted in a Microbeta scintillation counter.
(§5) Raw data (dpm) representing total radioligand binding (i.e. specific+non-specific binding) are plotted as a function of the logarithm of the molar concentration of the competitor (i.e. test or reference compound).
(§6) B. Dopamine Receptors: D1, D2, D3, D4, D5 Assay Buffers: Dopamine Binding Buffer (50 mM NaCl, 50 mM HEPES-HCl, 5 mM MgCl2, 0.5 mM EDTA, pH 7.4) Membrane Fraction Source: Transiently or stably transfected cell lines (e.g. HEK293, COS, CHO, NIH3T3)
(§7) The method is carried out in the manner described for the serotonin receptor assay above. Eleven dilutions (5× assay concentration) of the test and reference (see Table 19) compounds are prepared in Dopamine Binding Buffer by serial dilution, as previously described. Radioligand is diluted to five times the assay concentration (see Table 20) in Dopamine Binding Buffer.

[5] = biological target: dopamine D3 receptor (Homo sapiens (Human), UniProt P35462); assay: Secondary radioligand binding assay, D3; set-up: key to Ki D3: “—” indicates that a binding interaction was not detected
Sequence of dopamine D3 receptor (P35462 whole entry, species assumed): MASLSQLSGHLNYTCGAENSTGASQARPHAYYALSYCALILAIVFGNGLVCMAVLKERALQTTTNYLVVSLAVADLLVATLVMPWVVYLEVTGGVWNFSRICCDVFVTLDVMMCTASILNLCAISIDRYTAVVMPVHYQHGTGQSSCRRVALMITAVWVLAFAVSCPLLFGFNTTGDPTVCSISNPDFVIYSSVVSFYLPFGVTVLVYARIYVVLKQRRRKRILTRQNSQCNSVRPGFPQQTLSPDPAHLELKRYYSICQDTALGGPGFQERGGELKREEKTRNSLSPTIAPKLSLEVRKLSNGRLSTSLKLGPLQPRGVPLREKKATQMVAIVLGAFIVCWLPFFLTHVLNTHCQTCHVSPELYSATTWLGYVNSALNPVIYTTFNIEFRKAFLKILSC
Procedure: as §1, §2, §3, §4, §5, §6, §7

Sequence of 5HT4 receptor (Q13639 whole entry): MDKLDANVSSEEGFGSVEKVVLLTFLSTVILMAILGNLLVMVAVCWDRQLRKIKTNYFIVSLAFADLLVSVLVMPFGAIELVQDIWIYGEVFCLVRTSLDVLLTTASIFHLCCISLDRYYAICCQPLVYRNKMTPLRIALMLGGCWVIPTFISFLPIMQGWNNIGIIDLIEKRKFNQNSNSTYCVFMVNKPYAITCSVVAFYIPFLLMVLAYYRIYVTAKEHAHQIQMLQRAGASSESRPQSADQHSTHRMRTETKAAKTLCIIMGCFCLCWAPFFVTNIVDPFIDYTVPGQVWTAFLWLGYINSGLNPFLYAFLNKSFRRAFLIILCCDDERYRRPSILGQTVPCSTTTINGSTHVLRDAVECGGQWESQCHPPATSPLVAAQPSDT

Clc1cncc(OC[C@H]2CN(CCN3CCc4ccccc43)CCO2)c1 [Compound 27r, (R)-2-(((5-Chloropyridin-3-yl)oxy)methyl)-4-(2-(indolin-1-yl)ethyl)morpholine]
—: Ki 5HT4 [1] | Ki 5HT5 [2] | Ki Alpha1A [3] | Ki D2 [4] | Ki D3 [5]

CC1Cc2ccccc2N1C(=O)CN1CCO[C@@H](COc2ccccn2)C1 (stereo partly shown) [Compound 69]
—: Ki 5HT4 [1] | Ki 5HT5 [2] | Ki Alpha1A [3] | Ki D2 [4] | Ki D3 [5]

CC1Cc2ccccc2N1C(=O)CN1CCO[C@@H](COc2ccncc2)C1 (stereo partly shown) [Compound 68]
—: Ki 5HT4 [1] | Ki 5HT5 [2] | Ki Alpha1A [3] | Ki D2 [4] | Ki D3 [5]

CC1Cc2ccccc2N1C(=O)CN1CCO[C@H](COc2cccc(Cl)c2)C1 (stereo partly shown) [Compound 64]
—: Ki 5HT4 [1] | Ki 5HT5 [2] | Ki Alpha1A [3] | Ki D2 [4] | Ki D3 [5]

c1cncc(OC[C@H]2CN(CCN3CCc4ccccc43)CCO2)c1 [Compound 21r, (R)-4-(2-(Indolin-1-yl)ethyl)-2-((pyridin-3-yloxy)methyl)morpholine]
—: Ki 5HT4 [1] | Ki 5HT5 [2] | Ki Alpha1A [3] | Ki D2 [4] | Ki D3 [5]
